From ChEMBL document CHEMBL3124786, “The discovery of reverse tricyclic pyridone JAK2 inhibitors. Part 2: lead optimization” (Bioorg Med Chem Lett, 2014)

Experiments:
[1] = Plasma clearance in rat; type: ADME, organism-based
[2] = target: T1, Tyrosine-protein kinase JAK2 (Homo sapiens, UniProt O60674); assay: Inhibition of recombinant Jak2 (unknown origin) using biotinylated synthetic peptide substrate by homogeneous time resolved fluorescence assay
[3] = target: T1, Tyrosine-protein kinase JAK2; assay: Inhibition of Jak2 (unknown origin) assessed as inhibition of STAT5 phosphorylation by cell-based assay
[4] = organism: Rattus norvegicus; assay: Unbound clearance in rat; type: ADME, organism-based; details: in vivo
[5] = tested on: Mus musculus; assay: Inhibition of Jak2 (unknown origin) in po dosed […] mouse assessed as inhibition of STAT5 phosphorylation measured after 1 to 8 hrs of dosing by PK/PD assay; type: functional, organism-based
[6] = Plasma protein binding in rat; type: ADME, cell-free; details: read-out: PPB (converted)
[7] = Half life in rat; type: ADME, organism-based; details: in vivo
[8] = Volume of distribution in rat; type: ADME, organism-based; details: in vivo
[9] = Mus musculus, C56bl/6, read-out: IC50

T1 sequence (O60674 whole entry): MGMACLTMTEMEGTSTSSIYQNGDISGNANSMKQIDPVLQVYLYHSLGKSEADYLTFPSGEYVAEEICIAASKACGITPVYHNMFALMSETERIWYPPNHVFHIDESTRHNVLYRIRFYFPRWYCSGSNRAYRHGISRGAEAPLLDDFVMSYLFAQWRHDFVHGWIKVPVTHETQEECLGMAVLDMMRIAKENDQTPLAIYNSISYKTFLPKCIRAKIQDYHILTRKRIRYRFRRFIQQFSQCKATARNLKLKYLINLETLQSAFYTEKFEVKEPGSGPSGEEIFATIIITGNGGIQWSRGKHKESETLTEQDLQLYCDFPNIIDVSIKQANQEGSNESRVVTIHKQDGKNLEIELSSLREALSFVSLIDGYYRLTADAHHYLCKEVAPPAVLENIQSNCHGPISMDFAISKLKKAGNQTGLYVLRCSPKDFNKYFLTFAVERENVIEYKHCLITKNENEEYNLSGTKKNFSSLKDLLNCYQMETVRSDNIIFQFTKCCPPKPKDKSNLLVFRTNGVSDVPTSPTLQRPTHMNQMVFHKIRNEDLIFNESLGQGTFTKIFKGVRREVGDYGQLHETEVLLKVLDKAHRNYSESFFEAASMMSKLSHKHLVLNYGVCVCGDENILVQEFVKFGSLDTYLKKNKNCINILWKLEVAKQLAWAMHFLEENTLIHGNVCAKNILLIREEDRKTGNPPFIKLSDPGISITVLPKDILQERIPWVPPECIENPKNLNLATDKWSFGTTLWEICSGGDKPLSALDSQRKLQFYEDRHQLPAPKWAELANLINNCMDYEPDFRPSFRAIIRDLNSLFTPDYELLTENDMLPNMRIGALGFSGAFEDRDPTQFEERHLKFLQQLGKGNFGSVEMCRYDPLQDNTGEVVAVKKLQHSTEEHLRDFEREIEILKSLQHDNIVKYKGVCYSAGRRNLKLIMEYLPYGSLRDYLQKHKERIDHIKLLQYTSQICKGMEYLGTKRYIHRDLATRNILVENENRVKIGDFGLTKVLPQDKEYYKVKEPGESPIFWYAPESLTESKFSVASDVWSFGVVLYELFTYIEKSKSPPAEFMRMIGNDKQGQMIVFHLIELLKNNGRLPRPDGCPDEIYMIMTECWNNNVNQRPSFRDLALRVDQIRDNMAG

Row | SMILES | clearance [1] | IC50 [2] | IC50 [3] | CL [4] | IC50 [5, 9] | fraction unbound [6] | IC50 [5] | half-life [7] | Vd [8]
1 | CC(C)[C@@H](Nc1nc2cc[nH]c(=O)c2c2cnccc12)C(F)(F)F | 68 mL/min/kg |  |  |  |  |  |  |  | 
2 | O=c1[nH]ccc2c(NC3CC3)nc3ccc(F)cc3c12 |  | 200 nM |  |  |  |  |  |  | 
3 | O=c1[nH]ccc2nc(NC3CC3)c3ccc(F)cc3c12 |  | 100 nM |  |  |  |  |  |  | 
4 | O=c1[nH]ccc2c(Nc3c(F)cc(F)cc3F)nc3ccncc3c12 |  | 7 nM | 90 nM |  |  |  |  |  | 
5 | O=c1[nH]ccc2c(Nc3c(Cl)cc(F)cc3Cl)nc3ccncc3c12 |  | 0.8 nM | 14 nM |  |  |  |  |  | 
6 | O=c1[nH]ccc2c(Nc3c(Cl)cncc3Cl)nc3ccncc3c12 |  | 2 nM | 24 nM |  |  |  |  |  | 
7 | O=c1[nH]ccc2c(Nc3c(Cl)cc(OC(F)(F)F)cc3Cl)nc3ccncc3c12 |  | 3 nM | 140 nM |  |  |  |  |  | 
8 | O=c1[nH]ccc2c(Nc3c(Cl)cc(C(F)(F)F)cc3Cl)nc3ccncc3c12 |  | 1 nM | 49 nM |  |  |  |  |  | 
9 | O=c1[nH]ccc2c(Nc3c(F)cccc3C(F)(F)F)nc3ccncc3c12 |  | 9 nM | 90 nM |  |  |  |  |  | 
10 | CC(O)c1cc(Cl)c(Nc2nc3ccncc3c3c(=O)[nH]ccc23)c(Cl)c1 (stereo not drawn) | 54 mL/min/kg | 0.6 nM | 12 nM | 1125 mL/min/kg | 400 nM | 0.048 |  |  | 
11 | CC(C)(O)c1cc(Cl)c(Nc2nc3ccncc3c3c(=O)[nH]ccc23)c(Cl)c1 | 29 mL/min/kg | 0.5 nM | 18 nM | 1115 mL/min/kg | 1200 nM | 0.026 |  |  | 
12 | O=c1[nH]ccc2c(Nc3c(Cl)cc(-c4ccn[nH]4)cc3Cl)nc3ccncc3c12 | 10 mL/min/kg | 1 nM | 37 nM | 10000 mL/min/kg |  | 0.001 | Not Active |  | 
13 | O=c1[nH]ccc2c(Nc3c(Cl)cc(C(O)C(F)F)cc3Cl)nc3ccncc3c12 (stereo not drawn) | 16 mL/min/kg | 0.2 nM | 26 nM | 571 mL/min/kg | 1300 nM | 0.028 |  |  | 
14 | NS(=O)(=O)c1cc(Cl)c(Nc2nc3ccncc3c3c(=O)[nH]ccc23)c(Cl)c1 | 50 mL/min/kg | 0.15 nM | 113 nM |  |  |  | Not Active |  | 
15 | CC(C)[C@H](Nc1nc2ccncc2c2c(=O)[nH]ccc12)C(F)(F)F |  | 10 nM | 170 nM |  |  |  |  |  | 
16 | O=c1[nH]ccc2c(Nc3c(F)cc(F)cc3Cl)nc3ccncc3c12 | 41 mL/min/kg | 0.9 nM | 15 nM | 875 mL/min/kg | 2300 nM | 0.048 |  | 48 min | 2.6 L/kg
